Drawing on patent publication US8889712B2, “IAP antagonists” (Bristol-Myers Squibb Company, priority 2012, dated 2014), this text covers IC50 for 11 compounds.

pIC50: −log10 of the molar value. Read-outs that look alike come from different tables or passages of the source.

Test [1] concerns the target T1, XIAP BIR2-3 (Homo sapiens, UniProt P98170, C202A/C213G).
T1 construct: His-BIR2-3 (125-356, C202A/C213G, XIAP)
Put plainly: XIAP-BIR2-3 dimeric SMAC Peptide Homogeneous Time Resolved Fluorescence (HTRF) Assay. Format: binding. The protocol: B. […] Assays were performed in black, flat-bottom, 384-well plates. […] Compounds were dissolved at 3 mM in dimethylsulfoxide (DMSO) and evaluated at eleven serially diluted concentrations. IC50 and Ki values were derived by non-linear regression analysis.
(In general: In TR-FRET formats the signal depends on donor and acceptor labels being close together.)

In test [2] the target is T2, XIAP BIR3 (Homo sapiens, UniProt P98170).
T2 construct: His-BIR3 (241-356, XIAP)
T2 sequence (P98170 241-356): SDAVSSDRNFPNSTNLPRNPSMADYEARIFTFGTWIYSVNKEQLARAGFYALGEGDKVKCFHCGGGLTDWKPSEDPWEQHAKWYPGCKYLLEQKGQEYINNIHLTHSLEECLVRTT
Put plainly: XIAP-BIR3/SMAC Homogeneous Time Resolved Fluorescence (HTRF) Assay. The class given is binding. The protocol:
A. XIAP-BIR3/SMAC Homogeneous Time Resolved Fluorescence (HTRF) Assay Assays were performed in black, flat-bottom, 384-well plates. […] The reaction was incubated at room temperature for 60 minutes, following which 10 μl of mouse anti-6×His-terbium labeled Fab (Medarex, Cis-bio) was added to the reaction (40 μl) for an additional 30 minute incubation. […] Compounds were dissolved at 3 mM in dimethylsulfoxide (DMSO) and evaluated at eleven serially diluted concentrations. IC50 and Ki values were derived by non-linear regression analysis.

Setting [3] is: 0.5 nM N-His-BIR2-3 (125-356, C202A/C213G, XIAP), 20 nM fluorescein labeled dimeric SMAC peptide, HTRF signal, read-out: XIAP BIR2-3 IC50.
[4] abbreviates: 1 nM N-His-BIR3 (241-356, XIAP), 5 nM fluorescein labeled SMAC peptide, HTRF signal, read-out: XIAP BIR3 IC50.

T1 sequence (P98170 125-356 C202A/C213G): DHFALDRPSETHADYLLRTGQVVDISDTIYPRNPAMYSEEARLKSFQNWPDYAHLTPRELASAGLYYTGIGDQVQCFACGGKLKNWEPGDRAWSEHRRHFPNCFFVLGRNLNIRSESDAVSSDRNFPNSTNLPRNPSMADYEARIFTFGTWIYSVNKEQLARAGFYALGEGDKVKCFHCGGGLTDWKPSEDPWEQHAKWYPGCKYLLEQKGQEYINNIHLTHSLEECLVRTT

Take `CN[C@@H](C)C(=O)N[C@H](C(=O)N1C[C@@H](c2ccc3c(c2)CN(C(=O)[C@@H](NC(=O)[C@H](C)NC)C(C)(C)C)[C@H](C(=O)N[C@@H]2CCCc4ccccc42)C3)C[C@H]1C(=O)N[C@@H](Cc1ccccc1)c1nnn[nH]1)C(C)(C)C` [Example 78, (S)-2-((S)-3,3-Dimethyl-2-((S)-2-(methylamino)propanamido)butanoyl)-7-((3R,5S)-1-((S)-3,3-dimethyl-2-((S)-2-(methylamino)propanamido)butanoyl)-5-(((S)-2-phenyl-1-(1H-tetrazol-5-yl)ethyl)carbamoyl)pyrrolidin-3-yl)-N—((R)-1,2,3,4-tetrahydronaphthalen-1-yl)-1,2,3,4-tetrahydroisoquinoline-3-carboxamide]: the pIC50 was 8.55 in test [1] (setting [3]) and 8.05 in test [2] (setting [4]).
Taken in the same sequence, the figures for `CN[C@@H](C)C(=O)N[C@H](C(=O)N1C[C@@H](c2ccc3c(c2)CN(C(=O)[C@@H](NC(=O)[C@H](C)NC)C(C)(C)C)[C@H](C(=O)N[C@@H]2CCCc4ccccc42)C3)C[C@H]1C(=O)N[C@@H](Cc1ccccc1)C(=O)NS(=O)(=O)c1ccc2ccccc2c1)C(C)(C)C` [Example 49, (S)-2-((S)-3,3-Dimethyl-2-((S)-2-(methylamino)propanamido)butanoyl)-7-((3R,5S)-1-((S)-3,3-dimethyl-2-((S)-2-(methylamino)propanamido)butanoyl)-5-(((S)-1-(naphthalene-2-sulfonamido)-1-oxo-3-phenylpropan-2-yl)carbamoyl)pyrrolidin-3-yl)-N-((R)-1,2,3,4-tetrahydronaphthalen-1-yl)-1,2,3,4-tetrahydroisoquinoline-3-carboxamide] were 9.30 and 9.40.
In the same order, the values of `CCN[C@@H](C)C(=O)N[C@H](C(=O)N1C[C@@H](NC(=O)c2ccc3c(c2)CN(C(=O)[C@@H](NC(=O)[C@H](C)NC)C(C)(C)C)[C@H](C(=O)N[C@@H]2CCCc4ccccc42)C3)C[C@H]1C(=O)N[C@@H]1CCCc2ccccc21)C(C)(C)C` [Example 14, (S)-2-((S)-3,3-Dimethyl-2-((S)-2-(methylamino)propanamido)butanoyl)-N^7-((3S,5S)-1-((S)-2-((S)-2-(ethylamino)propanamido)-3,3-dimethylbutanoyl)-5-(((R)-1,2,3,4-tetrahydronaphthalen-1-yl)carbamoyl)pyrrolidin-3-yl)-N^3-((R)-1,2,3,4-tetrahydronaphthalen-1-yl)-1,2,3,4-tetrahydroisoquinoline-3,7-dicarboxamide] are 7.82 and 7.54.
With `CC[C@H](NC)C(=O)N[C@H](C(=O)N1C[C@@H](NC(=O)c2ccc3c(c2)CN(C(=O)[C@@H](NC(=O)[C@H](C)NC)C(C)(C)C)[C@H](C(=O)N[C@@H]2CCCc4ccccc42)C3)C[C@H]1C(=O)N[C@@H]1CCCc2ccccc21)C(C)(C)C` [Example 15, (S)-N^7-((3S,5S)-1-((S)-3,3-Dimethyl-2-((S)-2-(methylamino)butanamido)butanoyl)-5-(((R)-1,2,3,4-tetrahydronaphthalen-1-yl)carbamoyl)pyrrolidin-3-yl)-2-((S)-3,3-dimethyl-2-((S)-2-(methylamino)propanamido)butanoyl)-N^3-((R)-1,2,3,4-tetrahydronaphthalen-1-yl)-1,2,3,4-tetrahydroisoquinoline-3,7-dicarboxamide], the pIC50 in test [1] (setting [3]) was 8.30; in test [2] (setting [4]), 7.80.
In the same order, the values of `CN[C@@H](C)C(=O)N[C@H](C(=O)N1Cc2ccc(C(=O)N[C@H]3C[C@@H](C(=O)N[C@@H]4CCCc5ccccc54)N(C(=O)[C@@H](NC(=O)[C@H](C)NC)C(C)(C)C)C3)cc2C[C@@H]1C(=O)N[C@@H]1CCCc2ccccc21)C(C)(C)C` [Example 26, (R)-2-((S)-3,3-Dimethyl-2-((S)-2-(methylamino)propanamido)butanoyl)-N6-((3S,5S)-1-((S)-3,3-dimethyl-2-((S)-2-(methylamino)propanamido)butanoyl)-5-(((R)-1,2,3,4-tetrahydronaphthalen-1-yl)carbamoyl)pyrrolidin-3-yl)-N^3—((R)-1,2,3,4-tetrahydronaphthalen-1-yl)-1,2,3,4-tetrahydroisoquinoline-3,6-dicarboxamide] are 6.71 and 7.96.
Regarding `CN[C@@H](C)C(=O)N[C@H](C(=O)N1Cc2cc(NC(=O)[C@H]3C[C@@H](C(=O)N[C@@H]4CCCc5ccccc54)N(C(=O)[C@@H](NC(=O)[C@H](C)NC)C(C)(C)C)C3)ccc2C[C@H]1C(=O)N[C@@H]1CCCc2ccccc21)C(C)(C)C` [Example 27, (2S,4S)-1-((S)-3,3-Dimethyl-2-((S)-2-(methylamino)propanamido)butanoyl)-N^4—((S)-2-((S)-3,3-dimethyl-2-((S)-2-(methylamino)propanamido)butanoyl)-3-(((R)-1,2,3,4-tetrahydronaphthalen-1-yl)carbamoyl)-1,2,3,4-tetrahydroisoquinolin-7-yl)-N^2—((R)-1,2,3,4-tetrahydronaphthalen-1-yl)pyrrolidine-2,4-dicarboxamide], the pIC50 in test [1] is 9.00; in test [2], 8.30.
Regarding `CN[C@@H](C)C(=O)N[C@H](C(=O)N1C[C@@H](c2ccc3c(c2)CN(C(=O)[C@@H](NC(=O)[C@H](C)NC)C(C)(C)C)[C@H](C(=O)N[C@@H]2CCCc4ccccc42)C3)C[C@H]1C(=O)N[C@@H](Cc1ccccc1)C(=O)NCc1nccs1)C(C)(C)C` [Example 67, (S)-2-((S)-3,3-Dimethyl-2-((S)-2-(methylamino)propanamido)butanoyl)-7-((3R,5S)-1-((S)-3,3-dimethyl-2-((S)-2-(methylamino)propanamido)butanoyl)-5-(((S)-1-oxo-3-phenyl-1-((thiazol-2-ylmethyl)amino)propan-2-yl)carbamoyl)pyrrolidin-3-yl)-N-((R)-1,2,3,4-tetrahydronaphthalen-1-yl)-1,2,3,4-tetrahydroisoquinoline-3-carboxamide], the pIC50 is 8.68 in test [1] (setting [3]) and 8.03 in test [2] (setting [4]).
For the compound `CN[C@@H](C)C(=O)N[C@H](C(=O)N1C[C@@H](c2ccc3c(c2)CN(C(=O)[C@@H](NC(=O)[C@H](C)NC)C(C)(C)C)[C@H](C(=O)N[C@@H]2CCCc4ccccc42)C3)C[C@H]1C(=O)N[C@@H](Cc1ccccc1)c1nnc(C)o1)C(C)(C)C` [Example 79, (S)-2-((S)-3,3-Dimethyl-2-((S)-2-(methylamino)propanamido)butanoyl)-7-((3R,5S)-1-((S)-3,3-dimethyl-2-((S)-2-(methylamino)propanamido)butanoyl)-5-(((S)-1-(5-methyl-1,3,4-oxadiazol-2-yl)-2-phenylethyl)carbamoyl)pyrrolidin-3-yl)-N—((R)-1,2,3,4-tetrahydronaphthalen-1-yl)-1,2,3,4-tetrahydroisoquinoline-3-carboxamide], the pIC50 in test [1] (setting [3]) was 8.47; in test [2] (setting [4]), 7.78.
In the same order, the values of `CN[C@@H](C)C(=O)N[C@H](C(=O)N1Cc2cc([C@H]3C[C@@H](C(=O)N[C@@H](Cc4ccccc4)C(=O)O)N(C(=O)[C@@H](NC(=O)[C@H](C)NC)C(C)(C)C)C3)ccc2C[C@H]1C(=O)N[C@@H](Cc1ccccc1)C(=O)O)C(C)(C)C` [Example 86, (S)-2-((S)-7-((3R,5S)-5-(((S)-1-Carboxy-2-phenylethyl)carbamoyl)-1-((S)-3,3-dimethyl-2-((S)-2-(methylamino)propanamido)butanoyl)pyrrolidin-3-yl)-2-((S)-3,3-dimethyl-2-((S)-2-(methylamino)propanamido)butanoyl)-1,2,3,4-tetrahydroisoquinoline-3-carboxamido)-3-phenylpropanoic acid] are 8.57 and 8.30.
Turning to `CN[C@@H](C)C(=O)N[C@H](C(=O)N1Cc2cc(C(=O)N[C@H]3C[C@@H](C(=O)N[C@@H]4CCCc5ccccc54)N(C(=O)[C@@H](NC(=O)[C@H](C)NC)C(C)(C)C)C3)ccc2C[C@H]1C(=O)N[C@@H]1CCCc2ccccc21)[C@@H](C)OC` [Example 7, (S)-N^7-((3S,5S)-1-((S)-3,3-Dimethyl-2-((S)-2-(methylamino)propanamido)butanoyl)-5-(((R)-1,2,3,4-tetrahydronaphthalen-1-yl)carbamoyl)pyrrolidin-3-yl)-2-((2S,3R)-3-methoxy-2-((S)-2-(methylamino)propanamido)butanoyl)-N^3-((R)-1,2,3,4-tetrahydronaphthalen-1-yl)-1,2,3,4-tetrahydroisoquinoline-3,7-dicarboxamide], the pIC50 in test [1] (setting [3]) and in test [2] (setting [4]) was 8.22 in each case.
Regarding `CN[C@@H](C)C(=O)N[C@@H](CC1CCCCC1)C(=O)N1Cc2cc(C(=O)N[C@H]3C[C@@H](C(=O)N[C@@H]4CCCc5ccccc54)N(C(=O)[C@@H](NC(=O)[C@H](C)NC)C(C)(C)C)C3)ccc2C[C@H]1C(=O)N[C@@H]1CCCc2ccccc21` [Example 9, (S)-2-((S)-3-Cyclohexyl-2-((S)-2-(methylamino)propanamido)propanoyl)-N^7-((3S,5S)-1-((S)-3,3-dimethyl-2-((S)-2-(methylamino)propanamido)butanoyl)-5-(((R)-1,2,3,4-tetrahydronaphthalen-1-yl)carbamoyl)pyrrolidin-3-yl)-N^3-((R)-1,2,3,4-tetrahydronaphthalen-1-yl)-1,2,3,4-tetrahydroisoquinoline-3,7-dicarboxamide], the results for the pIC50 in test [1] (setting [3]) and in test [2] (setting [4]) were 8.52 and 7.48, respectively.

The pIC50 is the IC50 on a negative log10 scale, so that one unit is a factor of ten.
